The record followed here is ChEMBL document CHEMBL4483862, “Open-source discovery of chemical leads for next-generation chemoprotective antimalarials” (2018).

For this test, the system named is Plasmodium berghei. Nature of the test: Luciferase/luciferin-expressing antifolate-resistant parasites were used to infect a culture of HepG2 cells that were pre-incubated with compounds. Infected hepatocytes emit light due to the luciferase reaction. Assay results are presented as the percent inhibition of light emission compared to control. […]. Format: functional. The following applies: sporozoite; for IC90: read-out: LUCIFERASE INFECTION ASSAY - IC90.

The structures appear in SMILES notation.

The IC50 is the midpoint of a concentration-inhibition curve. As usually defined, the IC90 is the concentration needed for an effect of 90%. On to `Oc1c(Cl)cc(Cl)cc1/C=C/c1ccc2cccc(O)c2n1`, for which the IC90 amounted to 7.78 µM. In addition, the IC50 (HEPG2TOX_HILL_SLOPE 10.3, HEPG2TOX_R_SQUARED 0.191, PBLUC_HILL_SLOPE 3.13, PBLUC_R_SQUARED 0.48, read-out: LUCIFERASE INFECTION ASSAY - IC50) amounted to 3.86 µM.

Consider `NS(=O)(=O)c1ccc(CCNCC(=O)N2CCC(Cc3ccccc3)CC2)cc1`, for which the IC90 was more than 10 µM. Moreover, the IC50 (HEPG2TOX_HILL_SLOPE 10, HEPG2TOX_R_SQUARED 0.966, PBLUC_HILL_SLOPE 4.42, PBLUC_R_SQUARED 0.274, read-out: LUCIFERASE INFECTION ASSAY - IC50) worked out at 7.8 µM.

Consider `Cn1c(NCc2ccccc2F)nc2cnc(-c3ccc4c(c3)OCO4)cc21`, for which the IC90 was 5.21 µM. Further, under “HEPG2TOX_HILL_SLOPE 10, HEPG2TOX_R_SQUARED 0.935, PBLUC_HILL_SLOPE 10.5, PBLUC_R_SQUARED 0.0559, read-out: LUCIFERASE INFECTION ASSAY - IC50”, the IC50 worked out at 4.23 µM.

On to `Cc1noc(N)c1C(=O)OCc1cccc2cccnc12`, for which the IC90 is more than 10 µM. The IC50 (HEPG2TOX_HILL_SLOPE 10.3, HEPG2TOX_R_SQUARED 0.154, PBLUC_HILL_SLOPE 14, PBLUC_R_SQUARED 0.377, read-out: LUCIFERASE INFECTION ASSAY - IC50) was found to be 9.17 µM.

Regarding `CCOc1ccc(-c2nc(CSc3nnc(-c4ccccc4OC)n3CC)cs2)cc1`, the concentration for an effect of 90% (IC90) was more than 10 µM. Moreover, the IC50 (HEPG2TOX_HILL_SLOPE 10.1, HEPG2TOX_R_SQUARED 0.28, PBLUC_HILL_SLOPE 16.2, PBLUC_R_SQUARED 0.242, read-out: LUCIFERASE INFECTION ASSAY - IC50) is 9.09 µM.

As for `CC1CCN(C(=O)COc2ccc(C(C)C)cc2Br)CC1`, the IC90 stood at 8.51 µM. Also, the IC50 (HEPG2TOX_HILL_SLOPE 9.85, HEPG2TOX_R_SQUARED 0.75, PBLUC_HILL_SLOPE 15.1, PBLUC_R_SQUARED 0.202, read-out: LUCIFERASE INFECTION ASSAY - IC50) worked out at 7.36 µM.

For the molecule `CCn1ccnc1C(=O)Nc1nc(-c2ccc3c(c2)OCCO3)cs1`, the IC90 is 1.92 µM. The IC50 (HEPG2TOX_HILL_SLOPE 10.1, HEPG2TOX_R_SQUARED 0.135, PBLUC_HILL_SLOPE 182, PBLUC_R_SQUARED 0.438, read-out: LUCIFERASE INFECTION ASSAY - IC50) stood at 1.89 µM.

As to `FC(F)(F)Oc1ccc(Nc2cc3[nH]c(-c4ccccn4)cc3cn2)cc1`, the IC90 turned out to be 5.04 µM. The IC50 (HEPG2TOX_HILL_SLOPE 10.1, HEPG2TOX_R_SQUARED 0.985, PBLUC_HILL_SLOPE 7.97, PBLUC_R_SQUARED 0.35, read-out: LUCIFERASE INFECTION ASSAY - IC50) turned out to be 3.82 µM.

Consider `COc1ccc(N2CCN(c3nc(Nc4cc(C)nn4-c4ccccc4)c(Cl)cc3Cl)CC2)cc1`, for which the IC90 is more than 10 µM. Also, for the setting “HEPG2TOX_HILL_SLOPE 10.1, 8.63, HEPG2TOX_R_SQUARED 0.279, 0.753, PBLUC_HILL_SLOPE 15.1, PBLUC_R_SQUARED 0.229, read-out: LUCIFERASE INFECTION ASSAY - IC50”, the IC50 came to 9.89 µM.

As to `Cc1ccc(-c2nonc2NC(=O)c2sc3ccccc3c2Cl)cc1`, the IC90 is 6.55 µM. Besides, the IC50 (HEPG2TOX_HILL_SLOPE 10.3, HEPG2TOX_R_SQUARED 0.121, PBLUC_HILL_SLOPE 5.87, PBLUC_R_SQUARED 0.389, read-out: LUCIFERASE INFECTION ASSAY - IC50) is 4.5 µM.

Take `COc1ccc(CNCC(O)COc2ccc(C(C)(C)C)cc2C)cc1OC` (stereo not drawn): the IC90 is 10 µM. Besides, the IC50 (HEPG2TOX_HILL_SLOPE 9.88, HEPG2TOX_R_SQUARED 0.866, PBLUC_HILL_SLOPE 15, PBLUC_R_SQUARED 0.0695, read-out: LUCIFERASE INFECTION ASSAY - IC50) was determined as 8.63 µM.

Take `COc1ccc(C(NS(=O)(=O)c2ccc(-n3ncc(Cl)c(Cl)c3=O)cc2)C(C)C)cc1` (stereo not drawn): the IC90 is 2.38 µM. Further, the IC50 (HEPG2TOX_HILL_SLOPE 9.92, HEPG2TOX_R_SQUARED 0.979, PBLUC_HILL_SLOPE 3.67, PBLUC_R_SQUARED 0.728, read-out: LUCIFERASE INFECTION ASSAY - IC50) turned out to be 1.31 µM.

Turning to `COc1ccc(OC)c(Cn2cc(Br)ccc2=O)c1`, the IC90 was more than 10 µM. In addition, where the note is “HEPG2TOX_HILL_SLOPE 10.1, HEPG2TOX_R_SQUARED 0.0663, read-out: LUCIFERASE INFECTION ASSAY - IC50”, the IC50 was more than 10 µM.

Consider `O=C(CCN1CCN(c2ccccc2)CC1)N/N=C/c1cc(Br)ccc1O`, for which the IC90 is more than 10 µM. Moreover, the concentration for half-maximal inhibition (IC50) (HEPG2TOX_HILL_SLOPE 9.92, HEPG2TOX_R_SQUARED 0.702, PBLUC_HILL_SLOPE 4.41, PBLUC_R_SQUARED 0.46, read-out: LUCIFERASE INFECTION ASSAY - IC50) stood at 6.08 µM.

As to `COc1ncccc1C(=O)Nc1ccccc1Cl`, the IC90 was more than 12.6 µM. In addition, for the setting “HEPG2TOX_HILL_SLOPE 9.95, HEPG2TOX_R_SQUARED 0.955, PBLUC_HILL_SLOPE 2.98, PBLUC_R_SQUARED 0.38, read-out: LUCIFERASE INFECTION ASSAY - IC50”, the IC50 came to 12.2 µM.

With `Cn1c(NCc2ccccc2)nc2cnc(-c3ccc4ccccc4c3)cc21`, the concentration for an effect of 90% (IC90) is 9.43 µM. Moreover, the IC50 (HEPG2TOX_HILL_SLOPE 9.86, HEPG2TOX_R_SQUARED 0.539, PBLUC_HILL_SLOPE 12.2, PBLUC_R_SQUARED 0.511, read-out: LUCIFERASE INFECTION ASSAY - IC50) came out at 7.88 µM.

On to `C=C(CS(=O)(=O)c1ccccc1)C(=O)Nc1ccc(C(F)(F)F)cc1`, for which the IC90 amounted to 7.91 µM. The IC50 (HEPG2TOX_HILL_SLOPE 10, HEPG2TOX_R_SQUARED 0.961, PBLUC_HILL_SLOPE 2.89, PBLUC_R_SQUARED 0.554, read-out: LUCIFERASE INFECTION ASSAY - IC50) was 3.7 µM.

For the molecule `CSc1sc(C(=O)NC(=O)Nc2ccccc2Cl)c2c1-c1nocc1CC2`, the IC90 is more than 7.86 µM. For the setting “HEPG2TOX_HILL_SLOPE 9.91, HEPG2TOX_R_SQUARED 0.105, read-out: LUCIFERASE INFECTION ASSAY - IC50”, the half-maximal inhibitory concentration (IC50) is more than 7.86 µM.

For the molecule `O=c1c2ccccc2nc(SCc2cn3cc(Br)ccc3n2)n1-c1ccccc1F`, the IC90 was determined as 3.99 µM. For the same molecule, the IC50 (HEPG2TOX_HILL_SLOPE 9.92, HEPG2TOX_R_SQUARED 0.174, PBLUC_HILL_SLOPE 13.7, PBLUC_R_SQUARED 0.208, read-out: LUCIFERASE INFECTION ASSAY - IC50) was determined as 3.4 µM.

With `Cc1nnnn1/C(=C\c1ccccc1)C(=O)N1CCCC1c1nc2ccccc2s1` (stereo not drawn), the 90% effect concentration (IC90) was more than 10 µM. Further, the IC50 (HEPG2TOX_HILL_SLOPE 10.1, HEPG2TOX_R_SQUARED 0.585, PBLUC_HILL_SLOPE 18.2, PBLUC_R_SQUARED 0.211, read-out: LUCIFERASE INFECTION ASSAY - IC50) is 9.46 µM.

Regarding `COc1cc(CNCCCN(C)C)cc(Cl)c1OCc1ccc(F)cc1`, the IC90 was more than 8.66 µM. Besides, the concentration for half-maximal inhibition (IC50) (HEPG2TOX_HILL_SLOPE 10.1, HEPG2TOX_R_SQUARED 0.531, PBLUC_HILL_SLOPE 2.5, PBLUC_R_SQUARED 0.598, read-out: LUCIFERASE INFECTION ASSAY - IC50) came to 5.14 µM.

With `Oc1ccc(Br)cc1/C=C/c1ccc2cccc(O)c2n1`, the IC90 is more than 9.64 µM. Besides, the IC50 (HEPG2TOX_HILL_SLOPE 9.84, HEPG2TOX_R_SQUARED 0.0138, PBLUC_HILL_SLOPE 10.3, PBLUC_R_SQUARED 0.574, read-out: LUCIFERASE INFECTION ASSAY - IC50) stood at 8.32 µM.

In the case of `CN(C)CCCOc1ccc(-c2cn3c(-c4ccc5ncccc5c4)cnc3cn2)cn1`, the IC90 was 7.35 µM. Also, the IC50 (HEPG2TOX_HILL_SLOPE 9.84, HEPG2TOX_R_SQUARED 0.59, PBLUC_HILL_SLOPE 45.1, PBLUC_R_SQUARED 0.189, read-out: LUCIFERASE INFECTION ASSAY - IC50) was determined as 7 µM.

As to `CCOc1ccc(C(C)NC(=O)C(=O)c2c(C)nn(-c3ccccc3)c2C)cc1` (stereo not drawn), the IC90 was 9.94 µM. Besides, where the note is “HEPG2TOX_HILL_SLOPE 9.83, HEPG2TOX_R_SQUARED 0.28, PBLUC_HILL_SLOPE 22.8, PBLUC_R_SQUARED 0.679, read-out: LUCIFERASE INFECTION ASSAY - IC50”, the IC50 came to 9.03 µM.

For the molecule `CCCn1c(NC(=O)c2ccc(S(=O)(=O)N3CC(C)OC(C)C3)cc2)nc2ccccc21` (stereo not drawn), the IC90 stood at 5.08 µM. Besides, the concentration for half-maximal inhibition (IC50) (HEPG2TOX_HILL_SLOPE 9.83, HEPG2TOX_R_SQUARED 0.869, PBLUC_HILL_SLOPE 10.1, PBLUC_R_SQUARED 0.696, read-out: LUCIFERASE INFECTION ASSAY - IC50) was found to be 4.09 µM.

Regarding `O=C(c1c[nH]c2ccccc12)N1CCN(c2nsc3ccccc23)CC1`, the 90% effect concentration (IC90) turned out to be 3.82 µM. In addition, the IC50 (HEPG2TOX_HILL_SLOPE 9.85, HEPG2TOX_R_SQUARED 0.824, PBLUC_HILL_SLOPE 13.5, PBLUC_R_SQUARED 0.79, read-out: LUCIFERASE INFECTION ASSAY - IC50) was 3.25 µM.

`COC(=O)c1c(NC(=O)c2ccco2)c2cc(NC(C)Cc3ccccc3OC)cnc2n1C` (stereo not drawn): the IC90 was more than 7.14 µM. The IC50 (HEPG2TOX_HILL_SLOPE 9.88, HEPG2TOX_R_SQUARED 0.405, PBLUC_HILL_SLOPE 3.37, PBLUC_R_SQUARED 0.677, read-out: LUCIFERASE INFECTION ASSAY - IC50) was found to be 4.39 µM.

On to `O=[N+]([O-])c1cccc(OCC(O)CN2CCN(Cc3nc(-c4ccc(Cl)cc4)no3)CC2)c1` (stereo not drawn), for which the IC90 is more than 10 µM. Moreover, the IC50 (HEPG2TOX_HILL_SLOPE 10.3, HEPG2TOX_R_SQUARED 0.223, PBLUC_HILL_SLOPE 2.57, PBLUC_R_SQUARED 0.732, read-out: LUCIFERASE INFECTION ASSAY - IC50) stood at 4.59 µM.

Take `Cc1ccn2cc(C(=O)Nc3nnc(CC(C)C)s3)nc2c1`: the IC90 turned out to be 3.7 µM. The IC50 (HEPG2TOX_HILL_SLOPE 9.95, HEPG2TOX_R_SQUARED 0.674, PBLUC_HILL_SLOPE 11.8, PBLUC_R_SQUARED 0.71, read-out: LUCIFERASE INFECTION ASSAY - IC50) amounted to 3.07 µM.
